# Experimental data taken from patent US10858360B2, “Tricyclic gyrase inhibitors” (priority 2011, dated 2020).
# Where two headings read alike, the source gives them in different places.
# Assays:
# S. aureus ATCC 13709 = assay: MIC, S. aureus ATCC 13709 (Alamar Blue broth microdilution); format: cell-based; details: for MIC: Staphylococcus aureus, ATCC13709, S. aureus
# E. coli ATCC 25922 = assay: MIC, E. coli ATCC 25922; format: cell-based; details: for MIC: Escherichia coli, ATCC25922, E. coli
# [1] = S. aureus, Alamar Blue read after overnight incubation at 35° C.
# [2] = E. coli, Alamar Blue read after overnight incubation at 35° C.
# [3] = Alamar Blue read after overnight incubation at 35° C.
SMILES,MIC Sa (S. aureus ATCC 13709; [1]),MIC Ec (E. coli ATCC 25922; [2]),MIC (S. aureus ATCC 13709; [3]),MIC (E. coli ATCC 25922; [3]),other results
CNc1cc(F)cc2c1[nH]c1nc(Oc3ccc4c(c3)C(=O)NC4)nc(N3CC4(CCC4N)C3)c12 (stereo not drawn) [4.270],≤0.5 µg/mL,2 µg/mL,,,
CNc1cccc2c1[nH]c1nc(Oc3cncc(F)c3)nc(N3CC[C@@H](N)C3)c12 [3.6],,,0.5 µg/mL,1 µg/mL,
CNc1cc(F)cc2c1[nH]c1nc(Oc3cnc(C)nc3)nc(N(C)C3CNC3)c12 [4.134],>16 µg/mL,>16 µg/mL,,,
CNc1ncnc2c1[nH]c1nc(Oc3cnc(C)nc3)nc(N3CC4C(N)C4C3)c12 (stereo not drawn) [7.05],,,8 µg/mL,64 µg/mL,
CNc1cccc2c1[nH]c1nc(Oc3cncnc3)nc(N3CC4CCC(N)C4C3)c12 (stereo not drawn) [3.15],,,1 µg/mL,8 µg/mL,
CNc1cccc2c1[nH]c1nc(Oc3cnc4ccoc4c3)nc(N3CC4C(N)C4C3)c12 (stereo not drawn) [3.23],,,≤ 0.5 µg/mL,2 µg/mL,
CNc1cc(F)cc2c1[nH]c1nc(Oc3cncnc3)nc(N3CC4CCC(N)C3C4)c12 (stereo not drawn) [4.032],,,≤ 0.5 µg/mL,2 µg/mL,
CNc1cc(F)cc2c1[nH]c1nc(Oc3cnc(N)nc3)nc(N3CCC4(CC4N)C3)c12 (mixture of isomers) [4.174],≤0.5 µg/mL,≤0.5 µg/mL,,,
CNc1cc(F)cc2c1[nH]c1nc(Oc3cnc(Cl)nc3)nc(N3CC4CC(N)C4C3)c12 (stereo not drawn) [4.378],≤0.5 µg/mL,≤0.5 µg/mL,,,
CNc1cccc2c1[nH]c1nc(Sc3cnc4cccnc4c3)nc(N3CC(N)C3)c12 [1.29],,,1 µg/mL,> 64 µg/mL,
CNc1cc(F)cc2c1[nH]c1nc(Oc3ccc4nc5n(c(=O)c4c3)CCC5)nc(N3CC4C[C@@H](N)C4C3)c12 (stereo partly drawn) [4.376],,,> 16 µg/mL,> 16 µg/mL,
CNc1cc(F)cc2c1[nH]c1nc(Oc3cncc(C(N)=O)c3)nc(N3CC4C(N)C4C3)c12 (stereo not drawn) [4.237],,,≤ 0.5 µg/mL,2 µg/mL,
CNc1cc(F)cc2c1[nH]c1nc(Oc3cnc(SC)nc3)nc(N3CC4C[C@@H](N)C4C3)c12 (stereo partly drawn) [4.201],,,≤ 0.5 µg/mL,≤ 0.5 µg/mL,
CNc1cc(F)cc2c1[nH]c1nc(Oc3cnc(C4CC4)nc3)nc(N3CC4CCNC4C3)c12 (stereo not drawn) [4.250],≤0.5 µg/mL,≤0.5 µg/mL,,,
CNc1cc(F)cc2c1[nH]c1nc(Oc3cnc(C)nc3)nc(-c3cn[nH]c3)c12 [4.418],,,≤ 0.5 µg/mL,1 µg/mL,
CNc1cc(F)c(C)c2c1[nH]c1nc(Oc3cnc(C)nc3)nc(NCCCN)c12 [6.21],,,,,MIC Sa (S. aureus ATCC 13709): >16 µg/mL; MIC Ec (E. coli ATCC 25922): >16 µg/mL
CNc1cccc2c1[nH]c1nc(Sc3cnc4cccnc4c3)nc(N3CC4CCCNC4C3)c12 (stereo not drawn) [1.28],,,4 µg/mL,16 µg/mL,
CNc1cccc2c1[nH]c1nc(Oc3cncc(C#N)c3)nc(N3CC[C@@H](N)C3)c12 [3.3],,,0.5 µg/mL,1 µg/mL,
CNc1cc(F)cc2c1[nH]c1nc(Oc3cncc(-c4ccco4)c3)nc(N3CC4CC(N)C4C3)c12 (stereo not drawn) [4.350],≤0.5 µg/mL,4 µg/mL,,,
CNc1cc(F)cc2c1[nH]c1nc(Oc3cnc(C)nc3)nc(N3CC4CNC4C3)c12 (stereo not drawn) [4.067],,,≤ 0.5 µg/mL,≤ 0.5 µg/mL,
CNc1cc(F)cc2c1[nH]c1nc(Oc3cnc(N4CC(C)(N)C4)nc3)nc(N3CCC4(C[C@@H]4N)C3)c12 (stereo partly drawn) [4.341],≤0.5 µg/mL,1 µg/mL,,,

SMILES,MIC Sa (S. aureus ATCC 13709; [1]),MIC Ec (E. coli ATCC 25922; [2]),MIC (S. aureus ATCC 13709; [3]),MIC (E. coli ATCC 25922; [3]),other results
CNc1cc(F)cc2c1[nH]c1nc(Oc3cncnc3)nc(N3CCC4CNC4C3)c12 (stereo not drawn) [4.018],,,≤ 0.5 µg/mL,≤ 0.5 µg/mL,
CNc1cc(F)cc2c1[nH]c1nc(Oc3cnc(C#N)c(C)c3)nc(N3C[C@H](N)C4(CC4)C3)c12 [4.324],≤0.5 µg/mL,≤0.5 µg/mL,,,
CNc1cccc2c1[nH]c1nc(Oc3cncnc3)nc(N3C[C@@H]4CNC[C@H]4C3)c12 [3.61],,,4 µg/mL,16 µg/mL,
CCc1cc(F)cc2c1[nH]c1nc(Oc3cncnc3)nc(N3CC4C(N)C4C3)c12 (stereo not drawn) [2.2],,,2 µg/mL,4 µg/mL,
CNc1cc(F)cc2c1[nH]c1nc(Oc3cncc(Br)c3)nc(N3CC4CC3CC4N)c12 (stereo not drawn) [4.284],≤0.5 µg/mL,≤0.5 µg/mL,,,
CNc1cc(F)cc2c1[nH]c1nc(Oc3cnc(C)nc3)nc(N3CCNCC3)c12 [4.163],≤0.5 µg/mL,≤0.5 µg/mL,,,
Cc1cc(F)cc2c1[nH]c1nc(Oc3cncnc3)nc(N3CC4C(N)C4C3)c12 (stereo not drawn) [2.7],,,4 µg/mL,> 16 µg/mL,
CNc1cccc2c1[nH]c1nc(Oc3cncnc3)nc(N3CC(N)C4(CC4)C3)c12 (stereo not drawn) [3.45],,,≤ 0.5 µg/mL,≤ 0.5 µg/mL,
CNc1cc(F)cc2c1[nH]c1nc(Oc3cnc(N)nc3)nc(N3CC(NC(=O)CN)C4(CC4)C3)c12 (stereo not drawn) [4.182],2 µg/mL,16 µg/mL,,,
CNc1cc(F)cc2c1[nH]c1nc(Oc3cnc(C)nc3)nc(N3CC(NC(=O)C(N)CO)C4(CC4)C3)c12 (stereo not drawn) [4.124],≤0.5 µg/mL,8 µg/mL,,,
CNc1cc(F)cc2c1[nH]c1nc(Oc3cnc(C)nc3)nc(N3CC(N)C(C(=O)N4CCOCC4)C3)c12 (stereo not drawn) [4.438],,,1 µg/mL,16 µg/mL,
CNc1cccc2c1[nH]c1nc(Sc3cnc4ccc[n+]([O-])c4c3)nc(N3C[C@@H]4[C@@H](CN)[C@@H]4C3)c12 [1.18],,,≤ 0.5 µg/mL,2 µg/mL,
CNc1cc(F)cc2c1[nH]c1nc(Oc3cncnc3)nc(N3C4CCC3C(N)C4)c12 (stereo not drawn) [4.019],,,2 µg/mL,16 µg/mL,
COc1cccc2c1[nH]c1nc(Sc3cnc4nccnc4c3)nc(N3CC4C(N)C4C3)c12 (stereo not drawn) [1.76],,,1 µg/mL,> 64 µg/mL,
CNc1cc(F)cc2c1[nH]c1nc(Oc3cnc(N4CCOCC4)nc3)nc(N3CCC(N)C3)c12 (stereo not drawn) [4.212],≤0.5 µg/mL,≤0.5 µg/mL,,,
CNc1cc(F)cc2c1[nH]c1nc(Oc3cnc4[nH]cnc4c3)nc(N3C[C@H](N)C4(CC4)C3)c12 [4.313],8 µg/mL,>16 µg/mL,,,
Nc1cccc2c1[nH]c1nc(Oc3cnc4cccnc4c3)nc(N3CC4C(N)C4C3)c12 (stereo not drawn) [2.8],16 µg/mL,>64 µg/mL,,,
Nc1cccc2c1[nH]c1nc(Sc3cnc4ccc[n+]([O-])c4c3)nc(N3CC4C(N)C4C3)c12 (stereo not drawn) [1.8],,,64 µg/mL,> 64 µg/mL,
CNc1cc(F)cc2c1[nH]c1nc(Oc3cnc(CO)nc3)nc(N3CC4C(N)CC4(C)C3)c12 (stereo not drawn) [4.389],≤0.5 µg/mL,≤0.5 µg/mL,,,
CNc1cc(F)cc2c1[nH]c1nc(Oc3cnc(N(C)C)nc3)nc(N3CC4C(N)C4C3)c12 (stereo not drawn) [4.208],,,≤ 0.5 µg/mL,≤ 0.5 µg/mL,
CNc1cc(F)cc2c1[nH]c1nc(Oc3cnc(C)nc3)nc(N3CCNCC34CC4)c12 [4.133],>16 µg/mL,>16 µg/mL,,,

SMILES,MIC Sa (S. aureus ATCC 13709; [1]),MIC Ec (E. coli ATCC 25922; [2]),MIC (S. aureus ATCC 13709; [3]),MIC (E. coli ATCC 25922; [3]),other results
CNc1cccc2c1[nH]c1nc(Oc3cnc4cccnc4c3)nc(N3CC(N)C4(CC4)C3)c12 (stereo not drawn) [3.52],,,≤ 0.5 µg/mL,≤ 0.5 µg/mL,
CNc1cc(F)cc2c1[nH]c1nc(Oc3cnc(C)nc3)nc(-c3cncnc3)c12 [4.449],,,≤ 0.5 µg/mL,> 16 µg/mL,
CNc1ccc(C)c2c1[nH]c1nc(Sc3cnc4ccc[n+]([O-])c4c3)nc(N3CC(N)C4(CC4)C3)c12 (stereo not drawn) [1.72],,,≤ 0.5 µg/mL,1 µg/mL,
CNc1cccc2c1[nH]c1nc(Sc3cnc4nccnc4c3)nc(N3CC4C(N)C4C3)c12 (stereo not drawn) [1.16],,,≤ 0.5 µg/mL,1 µg/mL,
CNc1cc(F)cc2c1[nH]c1nc(Oc3cncc(Cl)c3)nc(N3CC4CC3CC4N)c12 (stereo not drawn) [4.276],≤0.5 µg/mL,8 µg/mL,,,
CNc1cccc2c1[nH]c1nc(Oc3cncc(OC)c3)nc(N3CC4C(N)C4C3)c12 (stereo not drawn) [3.35],,,≤ 0.5 µg/mL,1 µg/mL,
CNc1cc(F)cc2c1[nH]c1nc(Oc3cnc4c(c3)ncn4C)nc(N3CC4CC(N)C4C3)c12 (stereo not drawn) [4.226],≤0.5 µg/mL,2 µg/mL,,,
CNc1cc(F)cc2c1[nH]c1nc(Oc3cnc(N4CCOCC4)nc3)nc(N3CC(N)C4(CC4)C3)c12 (stereo not drawn) [4.213],≤0.5 µg/mL,1 µg/mL,,,
CNc1cc(F)cc2c1[nH]c1nc(Oc3cnc(C)nc3)nc(N3CC4CNCCC43)c12 (stereo not drawn) [4.082],1 µg/mL,8 µg/mL,,,
CNc1cc(F)cc2c1[nH]c1nc(Oc3cnc(CC(=O)N4CCOCC4)nc3)nc(N3C[C@H](N)C4(CC4)C3)c12 [4.369],,,≤ 0.5 µg/mL,1 µg/mL,
CNc1cccc2c1[nH]c1nc(Sc3cnc4ccc[n+]([O-])c4c3)nc(N3CC[C@H](N)C3)c12 [1.14],,,≤ 0.5 µg/mL,1 µg/mL,
CNc1cccc2c1[nH]c1nc(Sc3cnc4ccc[n+]([O-])c4c3)nc(N3CC[C@@H](C)[C@@H](N)C3)c12 [1.35],,,≤ 0.5 µg/mL,2 µg/mL,
CNc1cc(F)cc2c1[nH]c1nc(Oc3cnc(C)nc3)nc(N3CC4NCCOC4C3)c12 (stereo not drawn) [4.114],≤0.5 µg/mL,2 µg/mL,,,
CNc1cc(F)cc2c1[nH]c1nc(Oc3ccc4c(c3)C(=O)NC43CC3)nc(N3CC4CC(N)C4C3)c12 (stereo not drawn) [4.381],4 µg/mL,16 µg/mL,,,
CNc1cc(F)cc2c1[nH]c1nc(Oc3cnc(C)nc3)nc(N3CC4(CC(N)C4)C3)c12 [4.153],≤0.5 µg/mL,2 µg/mL,,,
CNc1cc(F)cc2c1[nH]c1nc(Oc3cnc(SC)nc3)nc(N3C[C@H](N)C4(CC4)C3)c12 [4.194],,,≤ 0.5 µg/mL,≤ 0.5 µg/mL,
CCc1cc(F)cc2c1[nH]c1nc(Oc3cnc(C)nc3)nc(N3CC4CC(N)C4C3)c12 (stereo not drawn) [2.4],,,≤ 0.5 µg/mL,1 µg/mL,
CNc1cc(F)cc2c1[nH]c1nc(Oc3cnc4c(c3)C(=O)NC4)nc(N3CC4C[C@@H](N)C4C3)c12 (stereo partly drawn) [4.357],,,≤ 0.5 µg/mL,4 µg/mL,
CNc1cc(F)cc2c1[nH]c1nc(Oc3cnc(C)nc3)nc(N3CC(CN)C3)c12 [4.143],≤0.5 µg/mL,2 µg/mL,,,
CNc1cc(F)cc2c1[nH]c1nc(Oc3ccc(C4CC4)nc3)nc(N3CC(N)C4(CC4)C3)c12 (stereo not drawn) [4.347],≤0.5 µg/mL,1 µg/mL,,,
CNc1cc(F)cc2c1[nH]c1nc(Oc3cnc(C)nc3)nc(N3CC(N)C(C(=O)NCC(C)O)C3)c12 (stereo not drawn) [4.439],,,8 µg/mL,> 16 µg/mL,
